Here are results for eleven compounds from patent US8084612B2, “Proline analogs as ligands for cannabinoid receptors” (Purdue Pharma L.P., priority 2008, dated 2011).

Structures are written as SMILES. Bounds are passed on as bounds.

Assay [1] concerns the target T1, CB1 receptor (Homo sapiens, UniProt P21554). In words: Competition binding assay, [3H]-CP55,940 displacement, CB1 CHO-K1 membranes.
Procedure: (§1) CHO-K1 cells expressing CB1 or CB2 receptors (which were purchased from EuroScreen; Brussels, Belgium) were grown to confluency (20-40×10^6 cells) in 10 cm dishes. Cells were lysed by adding 10 mL/dish ice-cold hypotonic buffer (2.5 mM MgCl2, 50 mM HEPES, pH 7.4). Cell lysates were removed using a cell scraper and homogenized 30 seconds with a BioSpec Tissue Tearer™ (Racine, Wis.). Membranes were collected by centrifugation at 30,000 g for 15 min at 4° C. and pellets resuspended in hypotonic buffer to a final concentration of 1-3 mg/mL.
(§2) Membranes (CB1 or CB2 CHO-K1: 1 μg/well) were incubated at room temperature for 1 hour with 0.5 nM [^3H]-CP55,940 in 500 μL of assay buffer (5 mM MgCl2, 5 mg/mL BSA, 2.5 mM EDTA and 50 mM Tris-HCl, pH 7.4) in the presence of increasing concentrations of unlabeled competitors, e.g. WIN55, 212-2 (a CB1 receptor agonist available from Sigma-Aldrich, St. Louis, Mo.) or ligand of interest. The final concentration of DMSO was 5% . Reactions were terminated by rapid filtration using a 96-well filtration apparatus (Brandel, Gaithersburg, Md.) onto GE/C filter plates (PerkinElmer Life Sciences; Boston, Mass.) pretreated with polyethylenimine 0.5% (w/v). The plates were washed three times with 500 μL of ice-cold assay buffer. Filter plates were subsequently dried at 50° C. for 2-3 hours. Fifty microliters per well BetaScint 20 (PerkinElmer) scintillation cocktail was added and plates counted in a TopCount (PerkinElmer) for 1 min/well.
(§3) Data were analyzed using GraphPad PRISM™, v. […] The concentrations of unlabeled competitors that yield 50% displacement (IC50 values) were calculated from each curve by a non-linear regression analysis fined to a one-site model. In separate experiments, equilibrium dissociation constants (Kd values) were determined for each receptor. […] All Ki values are presented as mean±SEM of n determinations.
Assay [2] addresses T1, CB1 receptor. In words: GTPγ[35S] functional binding assay, CB1 membranes. Format: biochemical. The arrangement: Brussels, Belgium; host or cells: CHO-K1; Emax: reference not given here. Particulars: GTPγ[35S] binding; for EC50: n.a. = no activity detected at the highest concentration tested, read-out: CB1 EC 50. (GTPγS is a poorly hydrolysed GTP analogue; its binding reports G protein activation.)

A further assay concerns the target CB2 receptor (Homo sapiens, UniProt P34972). The assay is described as follows: Competition binding assay, [3H]-CP55,940 displacement, CB2 CHO-K1 membranes.

CB2 receptor, sequence (P34972 whole entry): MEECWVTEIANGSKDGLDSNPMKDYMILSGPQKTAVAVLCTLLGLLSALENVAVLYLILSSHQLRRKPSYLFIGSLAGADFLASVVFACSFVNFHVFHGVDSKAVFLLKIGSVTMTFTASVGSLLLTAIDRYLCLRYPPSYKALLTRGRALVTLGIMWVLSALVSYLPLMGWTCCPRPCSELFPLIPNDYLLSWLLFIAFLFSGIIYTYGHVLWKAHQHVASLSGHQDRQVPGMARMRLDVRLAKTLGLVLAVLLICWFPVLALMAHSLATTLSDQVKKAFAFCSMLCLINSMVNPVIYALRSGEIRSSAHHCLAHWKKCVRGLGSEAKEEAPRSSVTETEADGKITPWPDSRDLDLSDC
T1 sequence (P21554 whole entry): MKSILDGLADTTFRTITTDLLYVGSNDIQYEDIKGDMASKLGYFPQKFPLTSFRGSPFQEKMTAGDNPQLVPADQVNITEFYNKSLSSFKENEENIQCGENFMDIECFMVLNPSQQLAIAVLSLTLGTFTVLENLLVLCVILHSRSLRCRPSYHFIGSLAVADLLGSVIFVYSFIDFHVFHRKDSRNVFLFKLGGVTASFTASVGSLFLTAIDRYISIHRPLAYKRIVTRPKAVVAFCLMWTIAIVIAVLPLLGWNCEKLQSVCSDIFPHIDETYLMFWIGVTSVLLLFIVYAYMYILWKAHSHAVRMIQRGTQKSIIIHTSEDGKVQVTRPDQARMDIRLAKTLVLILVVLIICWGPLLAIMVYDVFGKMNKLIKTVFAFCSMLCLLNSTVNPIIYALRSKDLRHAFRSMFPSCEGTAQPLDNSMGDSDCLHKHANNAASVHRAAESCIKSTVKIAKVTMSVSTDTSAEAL
Procedure for CB2 receptor: as §1, §2, §3

For the compound `O=C(Nc1ccsc1C(=O)N1CCCCC1)[C@H]1CCCN1S(=O)(=O)c1ccccc1` [DAA(a)], at CB1 receptor [1], the Ki stood at 1240 nM.
Turning to `O=C(Nc1sc2c(c1C(=O)N1CCCCC1)CCCCC2)[C@H]1CCCN1S(=O)(=O)c1cccs1` [AAF(a)], at CB1 receptor [2], the Emax came out at 150% and the EC50 was found to be 425 nM. The Ki at CB1 receptor [1] worked out at 7.3 nM. The compound further registered a Ki on CB2 receptor of 4.5 nM.
`O=C(Nc1ccccc1C(=O)N1CCCCC1)[C@H]1CCCN1S(=O)(=O)c1ccccc1` [GAA(a)]: the affinity at CB1 receptor [1] corresponds to a Ki of 1130 nM.
`CS(=O)(=O)N1CCC[C@@H]1C(=O)Nc1sc2c(c1C(=O)N1CCCCC1)CCCCC2` [AAD(a)] registered a Ki on CB1 receptor [1] of 2190 nM.
Consider `Cc1ccc(S(=O)(=O)N2CCC[C@@H]2C(=O)Nc2sc3c(c2C(=O)N2CCCCC2)CCCCC3)cc1` [AAC(a)], for which, on CB1 receptor [2], the Emax was determined as 8%. Also, the Ki at CB1 receptor [1] is 261 nM; at CB2 receptor it was 154 nM.
In the case of `O=C(Nc1sc2c(c1C(=O)N1CCCCC1)CCCCC2)[C@H]1CCCN1S(=O)(=O)c1ccc(F)cc1` [AAB(a)], on CB1 receptor [2], the Emax worked out at 68% and the EC50 turned out to be 1910 nM. The Ki on CB1 receptor [1] worked out at 43.5 nM. The compound also showed a Ki on CB2 receptor of 35.8 nM.
Consider `CCOC(=O)c1c(NC(=O)[C@H]2CCCN2S(=O)(=O)c2ccccc2)sc2c1CCCCC2` [ABE(a)], for which, at CB1 receptor [2], the EC50 was more than 25000 nM. In addition, the Ki at CB1 receptor [1] came out at 15.1 nM; at CB2 receptor, 11.5 nM.
`O=C(Nc1sc2c(c1C(=O)N1CCCCC1)CCCCC2)[C@H]1CCCN1C(=O)c1ccccc1` [EAA(a)]: the Ki at CB1 receptor [1] is 9290 nM.
Turning to `O=C(Nc1sc2c(c1C(=O)N1CCCCC1)CCCCC2)[C@H]1CCCN1S(=O)(=O)c1ccccc1` [AAA(a)], on CB1 receptor [2], the Emax worked out at 80% and the EC50 turned out to be 702 nM. Besides, at CB1 receptor [1], the affinity, expressed as Ki, was 4.7 nM. Also, the affinity at CB2 receptor, expressed as Ki, was 4.3 nM.
In turn, `O=C(Nc1sccc1C(=O)N1CCCCC1)[C@H]1CCCN1S(=O)(=O)c1ccccc1` [CAA(a)] had a Ki at CB1 receptor [1] of 1890 nM.
In the case of `O=C(Nc1sc2c(c1C(=O)N1CCCCC1)CCCCC2)[C@@H]1CCCN1S(=O)(=O)c1ccccc1` [AAA(b)], the Emax at CB1 receptor [2] is 8%. Further, the inhibition constant Ki on CB1 receptor [1] is 366 nM.

In general, Ki refers to the dissociation constant of the complex between target and ligand, obtained from inhibition or displacement. As usually defined, the Emax is the size of the effect at its maximum, as opposed to the concentration needed.
